Measurements from patent US6436987B1, “Crystalline forms of (3S-trans)-2-[3,4-dihydro-4-hydroxy-3-(phenylmethyl)-2H-1-benzopyran-7-yl]-4-(trifluoromethyl)-benzoic acid” (Pfizer Inc., priority 2000, dated 2002).
In brackets after ≈: the same amount, converted by molar mass. Counter-ions that a name gives are not always drawn. Each block holds one compound with its values, some of them ahead of it.

Legend:
Format in all cases: physicochemical
[1] = equilibrium solubility determined during polymorph screen; conditions: thermodynamic from solid; pH 7 water, four days at ambient temperature
Method: Using the microscopy methods described by Haleblaine and McCrone, Journal of Pharmaceutical Sciences, 58(8), pp. 911-929, 1969, a polymorph screen was conducted for the ethylene diamine (mono) salt of compound (I). No polymorphs were observed. A more extensive polymorph screen was run on the (mono) salt of compound (I′), involving 31 isolations, and again no polymorphs were observed. During the polymorph screen, an equilibrium solubility for the ethylene diamine (mono) salt of compound (I) was determined. After maintaining a sample for four days at ambient temperature, an equilibrium solubility value of approximately 4 mg/ml was determined, in pH 7 water. Additionally, the ethylene diamine (bis) salt was not observed in these studies.

[2] = comparison of forms: solubility in aqueous solvents; conditions: polymorph B versus polymorph A; salt versus all other known forms
[3] = hygroscopicity: weight gain at 87% RH; conditions: for weight gain (hygroscopicity): after 72 hours at 87% RH
Method: Polymorph A has an X-ray powder diffraction pattern that is unique to the form as previously described (FIG. 1). Upon microscopic examination, crystals appear as small needles and aggregates thereof, but which are not reliably distinguished from those of polymorph B (FIG. 2). By fusion microscopy, polymorph A is determined to commence melting at about 144° C., with no recrystallization noted upon further temperature increases. […] (FIG. 5).

[4] = equilibration of forms under ambient conditions (relative energy)
From the text: As evaluated by equilibration of the polymorphs (A and B) under ambient conditions, polyporph A is the lower energy form.

[5] = comparison of forms: thermal stability
[6] = solid-state storage stability in sealed dark glass bottle under nitrogen; conditions: sealed dark colored glass bottle, under nitrogen gas
From the text: However, polymorph B may be stably stored in solid form. If placed in a sealed dark colored glass bottle, under nitrogen gas, polymorph B crystals are stable for at least 6 weeks.
(§1) Examples of suitable solvent include ethyl acetate: hexanes 1:5.

[7] = conversion (bridging) to polymorph A in solvent
Method: Polymorph B crystals may also be converted back to polymorph A crystals by placement in a solvent in which the B form is very slightly soluble, such as n-hexanes. Over a period of time (for example, no more than 18 hours) crystals of polymorph A will develop. Prolonged granulation (for example 18 hours) even when conducted at 5° C. will also effect conversion to polymorph A.
as §1

[8] = salt screen for suitable crystalline properties; conditions: salt of compound (I′)
Method: Again using compound (I′), the following salt species were prepared and screened for the presence of suitable crystalline properties. […] The olamine salt was recovered as an oil. The meglumine salt material was determined to be amorphous. Both the benzathine (mono) and benzathine (bis) salts were also determined to be amorphous. Crystalline solids could also not be prepared for the L-arginine, L-lysine, calcium, potassium, and magnesium salts.

SMILES: O=C(O)c1ccc(C(F)(F)F)cc1-c1ccc2c(c1)OC[C@H](Cc1ccccc1)[C@H]2O [(3S-trans)-2-[3,4-dihydro-4-hydroxy-3-(phenylmethyl)-2H-1-benzopyran-7-yl]-4-(trifluoromethyl)-benzoic acid]
solubility thermodynamic at 4 days [1]: ~4000 µg/mL (≈ 9.34 mM)
solubility in aqueous solvents relative to other forms [2]: greater solubility in aqeuous solvents

SMILES: O=C(O)c1ccc(C(F)(F)F)cc1-c1ccc2c(c1)OC[C@H](Cc1ccccc1)[C@H]2O [Polymorph A, (3S-trans)-2-[3,4-dihydro-4-hydroxy-3-(phenylmethyl)-2H-1-benzopyran-7-yl]-4-(trifluoromethyl)-benzoic acid]
hygroscopicity in words ([3]; 87% RH, ambient temperature): substantially non-hygroscopic
weight gain (hygroscopicity) ([3]; again at ambient temperature (second value stated)): 0.36%
weight gain (hygroscopicity) ([3]; ambient temperature (first value stated)): 0.2%
relative energy of the crystal form [4]: lowest energy form
thermal stability relative to all other known forms of compound (I) [5]: greater thermal stability

SMILES: O=C(O)c1ccc(C(F)(F)F)cc1-c1ccc2c(c1)OC[C@H](Cc1ccccc1)[C@H]2O [monohydrate, (3S-trans)-2-[3,4-dihydro-4-hydroxy-3-(phenylmethyl)-2H-1-benzopyran-7-yl]-4-(trifluoromethyl)-benzoic acid]
time stable in solid form [6]: at least six weeks
bridging to polymorph A ([7]; hexanes alone): no bridging occurs
bridging to polymorph A ([7]; solvents with some minimal solubility, e.g. ethyl acetate: hexanes 1:5): readily bridges to polymorph A
relative energy of the crystal form [4]: higher in energy than polymorph A

Second part, the compound after the results:

time stable in solid form [6]: at least 6 weeks
time for conversion to polymorph A ([7]; in a solvent in which the B form is very slightly soluble, such as n-hexanes): no more than 18 hours
solubility in aqueous solvents relative to other forms [2]: greater solubility in aqeuous solvents
SMILES: O=C(O)c1ccc(C(F)(F)F)cc1-c1ccc2c(c1)OC[C@H](Cc1ccccc1)[C@H]2O [polymorph B, (3S-trans)-2-[3,4-dihydro-4-hydroxy-3-(phenylmethyl)-2H-1-benzopyran-7-yl]-4-(trifluoromethyl)-benzoic acid]

hygroscopicity of salt [8]: hygroscopic, becoming an oil
SMILES: O=C(O)c1ccc(C(F)(F)F)cc1-c1ccc2c(c1)OC[C@@H](Cc1ccccc1)[C@@H]2O [sodium salt, (3R-trans)-2-[3,4-dihydro-4-hydroxy-3-(phenylmethyl)-2H-1-benzopyran-7-yl]-4-(trifluoromethyl)-benzioc acid]
